Test results: patent publication US4153709A, “N-Heterocyclic ureas as immune regulants” (Eli Lilly and Company, priority 1977, dated 1979)
Like-named read-outs stand apart in the source and are kept apart here.

What was measured:
[1] = test system: antibody response to sheep blood cells (hemaglutination titer); assay: Immune regulating test: suppression of hemaglutination titer by 4-fold factor in mice (i.p. drug, i.p. sheep blood cells), Tables 1-15; assay type: in vivo, Swiss mice; details: Mus musculus, ip, 192 h, × 3, intraperitoneal, minimum dose to suppress the hemaglutination titer by a 4-fold factor, 8 days after antigen, read-out: Immuno-Suppressant ED4-Fold
Procedure, shortened: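 Groups of five 20-gram Swiss mice received compound i.p. and sheep blood cell antigen i.p.; sera pooled per group eight days after antigen. Hemagglutination titers of pooled sera compared with controls; value is the minimum dose suppressing titer 4-fold versus control.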

[2] = test system: antibody to sheep red blood cells; assay: 75 percent reduction of control antibody titer in mice by subcutaneous, percutaneous and oral routes (Table 16); assay type: in vivo, male Swiss mice; details: Mus musculus, Erythrocyte, × 10 daily doses commencing 3 days before antigen i.v.
Experimental: Subcutaneous, percutaneous, and oral activity have been achieved as indicated in Table 16 which follows employing representative compounds from the above entitled application. […] Except as indicated, the tests were performed using groups of five 20-gram male Swiss mice injected with 5×10^7 sheep red blood cells intravenously for each drug level. Ten (daily) administrations of drug were made commencing three days prior to red blood cell injection. On the day following the final treatment (7 days after red blood cell injection) the animals were bled by cardiac puncture, the sera from each five-mouse-group were pooled, and antibody titers of these serum pools and corresponding serum pools from control (untreated) mouse groups were determined. The results are expressed as the minimum drug dose effecting 75 percent reduction of control antibody titer: […]

[3] = test system: graft versus host reaction; assay: Graft versus host (GVH) reaction, spleen weight (Tables 20, 21); assay type: in vivo, mice (C57BL donors, F1 hybrid C57BL×C3H recipients)
Experimental: In this determination, […] (C57BL) mouse spleen cells are injected into mice of an F1 hybrid strain (C57BL×C3H). […] The injected cells, however, mount a reaction to the recipient's tissues due to the foreign C3H-derived antigens. As a consequence, the recipient's spleen becomes enlarged. Immunosuppressive therapy prevents or reduces this enlargement. Thus, spleen weights provide a measure of the GVH reaction and its reduction under immunosuppression.
Treated and GVH control animals receive an intraperitoneal injection of 1.2×10^9 splenic lymphocytes from the C57 donors. Spleens are weighed ten days later. Spleen weights derived from groups of recipient mice receiving genetically homologous, i.e., syngeneic cells (C57BL×C3H) provide normal control values for calculating percent inhibition in drug-treated groups. For example, mice given 13 daily topical doses of 1-(4,5,6,7-tetra-hydro-2-benzothiazolyl)-3-phenyl urea show a 62% reduction in GVH reaction relative to controls, as set forth in Table 20.
Using this procedure, three compounds from the above useful in the processes of this invention have been compared with several reference immunosuppressive drugs. Treatment levels defining the 50 percent inhibitory dose have been determined.

[4] = test system: twelve histidine-auxotrophs of Salmonella typhimurium; assay type: in vivo, Salmonella typhimurium in Cox white Swiss male mice; details: 300 mg/kg
Experimental: The in vivo and in vitro mutagenic potential of 1-(6-methoxy-2-benzothiazolyl)-3-phenyl-urea was negative when tested versus the twelve histidine-auxotrophs of Salmonella typhimurium at a level of 300 mg/kg in vivo and 750 mcg/ml in vitro. Imuran and Cytoxan, compounds with immunosuppressive activity; Streptozotacin, N-nitrosodimethylamine (DMNA) and trimethylenemelamine (TEM) known mutagens and/or carcinogens; and Acetylsalicylic Acid (ASA) were used as control compounds.
A. Drug Administration: Appropriate solvents were used where applicable with a solvent control run within each test. The compounds to be tested were given either subcutaneously along the backbone of the mouse (0.1 ml.) or by oral gavage (0.5 ml.) B. Inoculation Technique: The histidine- cultures G46, C209, C3076, and D3056 used as the TA15 series have lost pathogenicity to mice because of absence or decrease in the lipopolysaccharide coat. The organisms were grown to stationary phase, then diluted with normal saline to give an inoculum near 1×10^8 organisms per milliliter. The abdominal area of the drug-treated mouse was swabbed with alcohol and two milliliters of bacterial culture were injected into the abdominal cavity of the mouse. The mice were returned to their cages for 3-4 hours.
C. Autopsy and Recovery: The mice were sacrificed individually by cervical dislocation prior to each autopsy. […]

[5] = test system: Salmonella typhimurium G46 missense histidine-auxotroph; assay: Qualitative in vitro prescreen for mutagenicity, G46 indicator (Table 22); details: 200 mcg disc
From the text: Filter paper discs 1/4" were impregnated with 200 mcg of test compound using either H2 O or DMSO as solvent. The discs were placed on Petri dishes containing minimal media which had been individually seeded with one of the twelve tester strains. […] A uniform circle of colonies appear around the pad when a compound with mutagenic potential is present. The test compound forms a concentration gradient as it diffuses from the pad. Occasionally, there is a clear ring in close proximity to the pad surrounded by a uniform circle of revertant colonies which indicates a lethal mutation at high concentration of compound and nonlethal mutation at lesser concentration. A single pad thus allows one to test a compound over a wide range of concentrations. Histidine+ colonies were developed enough to read after 48 hr. incubation at 37° C. The plates were read as follows:
A. background zone, if present, is measured in millimeters, if not, a negative is recorded (-).
B. mutant zone is measured in millimiters, if present; if not, a negative (-) is recorded.
C. the mutation frequency can be estimated from density of mutant colonies as follows:
1. Low frequency--few colonies
2. Moderate frequency--many colonies
3. High frequency--dense ring of colonies
4. No colonies recorded (-)

**Q.** With `COc1ccc2nc(NC(=O)Nc3ccccc3)sc2c1` [Table 11: phenyl, 6-CH3 O, S, 1-(6-methoxy-2-benzothiazolyl)-3-phenyl urea] as the molecule, how does the minimal effective dose [1] read?
**A.** < 25 mg/kg

**Q.** And the minimal effective dose ([2]; sc, subcutaneous, read-out: Lowest Dose Producing 75% Immunosuppression, Subcutaneous)?
**A.** 0.8 to 1.6 mg/kg

**Q.** What about the minimal effective dose ([2]; oral, read-out: Lowest Dose Producing 75% Immunosuppression, Oral) of the same molecule?
**A.** 12.5 to 25 mg/kg

**Q.** And the minimal effective dose ([2]; percutaneous, read-out: Lowest Dose Producing 75% Immunosuppression, Percutaneous)?
**A.** 12.5 mg/kg

**Q.** What about the “Percent GVH Inhibition” value ([3]; 1 mg/kg × 13, s.c.) of the same molecule?
**A.** 22%

**Q.** What about the “Percent GVH Inhibition” value ([3]; 2 mg/kg × 13, s.c.) of the same molecule?
**A.** 58%

**Q.** What about the “in vivo mutagenic potential” value [4] of the same molecule?
**A.** negative

**Q.** And the “IN VITRO QUALITATIVE ACTIVITY” value [5]?
**A.** N
